target: human ENPP2 (Homo sapiens (Human), UniProt Q13822); assay: Measurement of human ENPP2 inhibitory activity; assay type: biochemical; settings: human ENPP2, 16:0-LPC substrate, read-out: ENPP2 inhibitory activity rate (%)
Procedure: 10 μL of a test compound solution (10% dimethyl sulfoxide) at each concentration and 40 μL of a 5 μg/mL human ENPP2 solution (buffer A: 100 mmol/L Tris-HCl (pH 9.0), 500 mmol/L NaCl, 5 mmol/L MgCl2, 0.05% Triton X-100) were mixed, 50 μL of a 2 mmol/L 16:0-lysophosphatidylcholine (LPC) solution (buffer A) was further added to react at 37° C. for 24 hours. Subsequently, to 10 μL of the reaction solution was added 90 μL of a measurement buffer (0.5 mmol/L aminoantipyrine, 0.3 mmol/L N-ethyl-N-(2-hydroxy-3-sulfopropyl)-3-methylaniline, 1 U/mL peroxidase, 3 U/mL choline oxidase, 100 mmol/L Tris-HCl (pH 8.5), 5 mmol/L CaCl2) to react at 37° C. for 20 minutes, and spectrophotometric determination was performed at 555 nm.
Using a standard curve, a choline production amount (enzyme activity) in each test compound was calculated, and the inhibitory activity rate of each test compound was calculated, wherein the enzyme activity in a positive control to which a test compound is not added, was a 0% inhibition rate, and the enzyme activity in a negative control to which a test compound and human ENPP2 are not added, were 100% inhibition. Further, concerning the present compounds shown in Table 3, an IC50 value was calculated from inhibitory activity rate at each concentration.

Row | inhibition at 1 µM [%] | Compound
1 | 99.3 | CCc1cccc(Cn2c3c(c4cccnc42)CCN(C(=O)CC24CCC(C(=O)O)(CC2)C4)C3)c1 [Example 6(72), 4-{2-[9-(3-ethylbenzyl)-5,6,8,9-tetrahydro-7H-pyrido[4′,3′:4,5]pyrrolo[2,3-b]pyridin-7-yl]-2-oxoethyl}bicyclo[2.2.1]heptane-1-carboxylic acid]
2 | 97.4 | C[C@]1(C(=O)O)CC[C@H](CC(=O)N2CCc3c(n(Cc4cnc(C(F)(F)F)s4)c4ncccc34)C2)CC1 [Example 10(5), trans-1-methyl-4-[2-oxo-2-(9-{[2-(trifluoromethyl)-1,3-thiazol-5-yl]methyl}-5,6,8,9-tetrahydro-7H-pyrido[4′,3′:4,5]pyrrolo[2,3-b]pyridin-7-yl)ethyl]cyclohexanecarboxylic acid]
3 | 99.2 | O=C(C[C@H]1CC[C@H](C(=O)O)CC1)N1CCc2c(n(Cc3csc(C(F)(F)F)c3)c3ncccc23)C1 [Example 6(13), trans-4-[2-oxo-2-(9-{[5-(trifluoromethyl)-3-thienyl]methyl}-5,6,8,9-tetrahydro-7H-pyrido[4′,3′:4,5]pyrrolo[2,3-b]pyridin-7-yl)ethyl]cyclohexanecarboxylic acid]
4 | 99.1 | CC1(C)[C@@H](CC(=O)N2CCc3c(n(Cc4cnc(C(F)(F)F)s4)c4ccccc34)C2)CC[C@@]1(C)C(=O)O [Example 6(49), (1R,3R)-1,2,2-trimethyl-3-[2-oxo-2-(9-{[2-(trifluoromethyl)-1,3-thiazol-5-yl]methyl}-1,3,4,9-tetrahydro-2H-beta-carbolin-2-yl)ethyl]cyclopentanecarboxylic acid]
5 | 99.2 | O=C(CC12CCC(C(=O)O)(CC1)C2)N1CCc2c(n(Cc3ccc(C(F)(F)F)cc3)c3ncccc23)C1 [Example 6(68), 4-(2-oxo-2-{9-[4-(trifluoromethyl)benzyl]-5,6,8,9-tetrahydro-7H-pyrido[4′,3′:4,5]pyrrolo[2,3-b]pyridin-7-yl}ethyl)bicyclo[2.2.1]heptane-1-carboxylic acid]
6 | 99.5 | CC1(C(=O)O)CCN(CC(=O)N2CCc3c(n(Cc4ccc(C(F)(F)F)s4)c4ncccc34)C2)CC1 [Example 7(39), 4-methyl-1-[2-oxo-2-(9-{[5-(trifluoromethyl)-2-thienyl]methyl}-5,6,8,9-tetrahydro-7H-pyrido[4′,3′:4,5]pyrrolo[2,3-b]pyridin-7-yl)ethyl]-4-piperidinecarboxylic acid]
7 | 99 | O=C(C[C@H]1CC[C@H](C(=O)O)CC1)N1CCc2c(n(Cc3ccc(C(F)(F)F)s3)c3ncccc23)C1 [Example 6(16), trans-4-[2-oxo-2-(9-{[5-(trifluoromethyl)-2-thienyl]methyl}-5,6,8,9-tetrahydro-7H-pyrido[4′,3′:4,5]pyrrolo[2,3-b]pyridin-7-yl)ethyl]cyclohexanecarboxylic acid]

test system: Crl:CD (Sprague-Dawley) male rat; assay: Measurement of blood pressure and heart rate in rat under wakefulness; assay type: in vivo; settings: conscious rat, forced oral administration, 100, 300 mg/kg, up to 180 minutes
Procedure: A Cr1:CD (Sparague-Dawley) male rat (Charles River Laboratories Japan, Inc., 8 weeks old) was anesthetized by inhalation of isoflurane. A catheter (INTRAMEDIC POLYETHYLENE Tubing PE50, CLAY ADAMS) was inserted and indwelled in a femoral artery and another end was exposed from dorsal skin. The rat was placed in a rearing cage for blood pressure measurement. After elapse of 2 hours or more from the insertion of the catheter, each of the compound of Reference Example 2 and the compound of Example 6(72) (dose: 100, 300 mg/kg) was forcedly orally administered, and blood pressure was measured under no anesthesia and no restraint. The blood pressure was measured by connecting the catheter inserted in the femoral artery and a blood pressure transducer (DX-360, Nihon Kohden Corporation) and passing through an amplifier for blood pressure measurement (Coupler.Amplifier PP-101H.AP-101H, Nihon Kohden Corporation). Blood pressure signals were captured into a data acquisition analysis system (HEM 3.5, NOTOCORD SYSTEM S.A.) through a polygraph system (PEG-1000, Nihon Kohden Corporation) to measure blood pressure (systolic pressure, diastolic pressure, mean blood pressure) and heart rate (measured from blood pressure pulse wave). […] The data were accumulated as measured values at respective time points and % variation values in which each value before administration was taken as 100.

Row | Compound | influence on a circulatory organ (blood pressure, heart rate)
8 | O=C(C[C@H]1CC[C@H](C(=O)O)CC1)N1CCc2c(n(Cc3ccc(F)cc3F)c3ncccc23)C1 [Reference Example 2, trans-4-{2-[9-(2,4-difluorobenzyl)-5,6,8,9-tetrahydro-7H-pyrido[4′,3′:4,5]pyrrolo[2,3-b]pyridin-7-yl}-2-oxoethyl}cyclohexanecarboxylic acid, reference compound] | An influence of the compound of Reference Example 2 on a circulatory organ was observed
9 | CCc1cccc(Cn2c3c(c4cccnc42)CCN(C(=O)CC24CCC(C(=O)O)(CC2)C4)C3)c1 [Example 6(72), 4-{2-[9-(3-ethylbenzyl)-5,6,8,9-tetrahydro-7H-pyrido[4′,3′:4,5]pyrrolo[2,3-b]pyridin-7-yl]-2-oxoethyl}bicyclo[2.2.1]heptane-1-carboxylic acid] | no influence
